Literature values in patent publication US20080103103A1, “Reagents and methods to treat ocular diseases and infection” (priority 2006, published 2008).

Assays:
HSV = HSV early onset
adenovirus [1] = system: adenovirus
adenovirus [2] = system: adenovirus; remark: listed apart in the source
adenovirus [3] = details: 0.2%
adenovirus [4] = details: 0.5%
adenovirus [5] = details: 3%, ocular application

Nc1nc2c(ncn2COCCO)c(=O)[nH]1 [Acyclovir]
effectiveness against HSV (HSV): effective | effectiveness against adenovirus (adenovirus [1]): not adenovirus

O=C(O[C@@H]1Cc2c(O)cc(O)cc2O[C@@H]1c1cc(O)c(O)c(O)c1)c1cc(O)c(O)c(O)c1 [EGCG, (2R,3R)-2-(3,4,5-Trihydroxyphenyl)-3,4-dihydro-1(2H)-benzopyran-3,5,7-triol 3-(3,4,5-trihydroxybenzoate)]
activity against adenovirus in vitro (viral load) (adenovirus [2]; in vitro): greatly reducing the viral load | concentration effective for in vitro cultures (adenovirus [2]; in vitro cultures, adenovirus): 0.005%

Nc1ccn(C[C@@H](CO)OCP(=O)(O)O)c(=O)n1 [cidofovir]
result in clinical trials (adenovirus [3]): failed | result in animal studies (adenovirus [4]): some positive results

CC(=O)OCC(CCn1cnc2cnc(N)nc21)COC(C)=O [famciclovir]
effectiveness against HSV (HSV): effective | effectiveness against adenovirus (adenovirus [1]): not adenovirus

Nc1nc(O)c2ncn(COC(CO)CO)c2n1 [gancicolovir]
activity against adenovirus (adenovirus [5]): very minor activity
